Test results from patent US11690810B2, “Combination treatment of bacterial infection” (The Chinese University of Hong Kong, priority 2018, dated 2023).

Key:
Test in all cases: MIC and checkerboard (FIC) assay
CA-MRSA strain ST30 = assay type: cell-based, Staphylococcus aureus; details: ST30
HA MRSA W232 = details: W232
[1] = system: S. aureus ATCC25923 (methicillin sensitive); details: ATCC 25293
CA MRSA W114 = details: W114
[2] = system: S. aureus SA-APH2″-AAC6′ (APH2), resistant to gentamicin; details: for FIC / MIC combine: APH2
MRSA SA-ST239 = details: ST239
CA MRSA W47 = details: W47
HA MRSA W235 = details: W235
HA MRSA W233 = system: HA MRSA W233
CA MRSA W44 = details: W44
HA MRSA W240 = details: W240
HA MRSA W231 = system: HA MRSA W231
[3] = system: S. aureus SA-ANT4′ (ANT4), resistant to fusidic acid; details: for FIC / MIC combine: ANT4
CA MRSA W113 = details: W113
HA MRSA W239 = details: W239
[4] = system: clinical fusidic acid resistant MRSA strain 73621; assay type: cell-based, Staphylococcus aureus; details: for FIC / MIC combine: 73621
HA MRSA W238 = system: HA MRSA W238
CA MRSA W103 = details: W103

C=C(C)[C@H](CC=C(C)C)Cc1c(O)cc(OC)c(C(=O)/C=C/c2ccc(O)cc2O)c1O [Kuraridin]
MIC alone (CA-MRSA strain ST30): 8 µg/mL | FIC (CA-MRSA strain ST30; ECG with Kur): 0.5 | MIC combine (CA-MRSA strain ST30; ECG with Kur): 4 µg/mL | FIC (CA-MRSA strain ST30; ECG+Kur+Van): 0.125 | MIC combine (CA-MRSA strain ST30; ECG+Kur+Van): 1 µg/mL | MIC alone (CA-MRSA strain ST30; Table 5): 8 µg/mL | MIC alone (HA MRSA W232): 8 µg/mL | FIC (HA MRSA W232; ECG with Kur): 0.25 | MIC combine (HA MRSA W232; ECG with Kur): 2 µg/mL | FIC (HA MRSA W232; ECG+Kur+Van): 0.25 | MIC combine (HA MRSA W232; ECG+Kur+Van): 2 µg/mL | MIC alone (HA MRSA W232; Table 5): 8 µg/mL | MIC alone [1]: 8 µg/mL | FIC ([1]; ECG with Kur): 0.5 | MIC combine ([1]; ECG with Kur): 4 µg/mL | MIC alone (CA MRSA W114): 8 µg/mL | FIC (CA MRSA W114; ECG with Kur): 0.5 | MIC combine (CA MRSA W114; ECG with Kur): 4 µg/mL | MIC alone ([2]; APH2 (gentamicin resistant)): 8 µg/mL | FIC ([2]; ECG+Kur+Gen): 0.25 | MIC combine ([2]; ECG+Kur+Gen): 2 µg/mL | FIC ([2]; ECG+Kur, no Gen): 0.25 | MIC combine ([2]; ECG+Kur, no Gen): 2 µg/mL | MIC alone (MRSA SA-ST239): 8 µg/mL | FIC (MRSA SA-ST239; ECG with Kur): 0.5 | MIC combine (MRSA SA-ST239; ECG with Kur): 4 µg/mL | FIC (MRSA SA-ST239; ECG+Kur+Van): 0.125 | MIC combine (MRSA SA-ST239; ECG+Kur+Van): 1 µg/mL | MIC alone (MRSA SA-ST239; Table 5): 8 µg/mL | MIC alone (CA MRSA W47): 8 µg/mL | FIC (CA MRSA W47; ECG with Kur): 0.5 | MIC combine (CA MRSA W47; ECG with Kur): 4 µg/mL | FIC (CA MRSA W47; ECG+Kur+Van): 0.25 | MIC combine (CA MRSA W47; ECG+Kur+Van): 2 µg/mL | MIC alone (CA MRSA W47; Table 5): 8 µg/mL | MIC alone (HA MRSA W235): 8 µg/mL | FIC (HA MRSA W235; ECG with Kur): 0.5 | MIC combine (HA MRSA W235; ECG with Kur): 4 µg/mL | MIC alone (HA MRSA W233; W233): 4 µg/mL | MIC alone (HA MRSA W233; W233 (gentamicin resistant)): 8 µg/mL | FIC (HA MRSA W233; W233, ECG with Kur): 0.5 | MIC combine (HA MRSA W233; W233, ECG with Kur): 2 µg/mL | FIC (HA MRSA W233; W233, ECG+Kur+Gen): 0.5 | MIC combine (HA MRSA W233; W233, ECG+Kur+Gen): 4 µg/mL | FIC (HA MRSA W233; W233, ECG+Kur+Van): 0.25 | MIC combine (HA MRSA W233; W233, ECG+Kur+Van): 2 µg/mL | FIC (HA MRSA W233; W233, ECG+Kur, no Gen): 1 | MIC combine (HA MRSA W233; W233, ECG+Kur, no Gen): 8 µg/mL | MIC alone (HA MRSA W233; W233, Table 5): 8 µg/mL | MIC alone (CA MRSA W44): 8 µg/mL | FIC (CA MRSA W44; ECG with Kur): 0.25 | MIC combine (CA MRSA W44; ECG with Kur): 2 µg/mL | FIC (CA MRSA W44; ECG+Kur+Van): 0.25 | MIC combine (CA MRSA W44; ECG+Kur+Van): 2 µg/mL | MIC alone (CA MRSA W44; Table 5): 8 µg/mL | MIC alone (HA MRSA W240): 8 µg/mL | FIC (HA MRSA W240; ECG with Kur): 0.5 | MIC combine (HA MRSA W240; ECG with Kur): 4 µg/mL | MIC alone (HA MRSA W231; W231): 4 µg/mL | MIC alone (HA MRSA W231; W231 (gentamicin resistant)): 8 µg/mL | FIC (HA MRSA W231; W231, ECG with Kur): 0.25 | MIC combine (HA MRSA W231; W231, ECG with Kur): 1 µg/mL | FIC (HA MRSA W231; W231, ECG+Kur+Gen): 0.25 | MIC combine (HA MRSA W231; W231, ECG+Kur+Gen): 2 µg/mL | FIC (HA MRSA W231; W231, ECG+Kur+Van): 0.125 | MIC combine (HA MRSA W231; W231, ECG+Kur+Van): 1 µg/mL | FIC (HA MRSA W231; W231, ECG+Kur, no Gen): 0.25 | MIC combine (HA MRSA W231; W231, ECG+Kur, no Gen): 2 µg/mL | MIC alone (HA MRSA W231; W231, Table 5): 8 µg/mL | MIC alone ([3]; ANT4 (fusidic acid resistant)): 8 µg/mL | FIC ([3]; ECG+Kur+Fus): 0.25 | MIC combine ([3]; ECG+Kur+Fus): 2 µg/mL | FIC ([3]; ECG+Kur, no Fus): 0.25 | MIC combine ([3]; ECG+Kur, no Fus): 2 µg/mL | MIC alone (CA MRSA W113): 8 µg/mL | FIC (CA MRSA W113; ECG with Kur): 0.5 | MIC combine (CA MRSA W113; ECG with Kur): 4 µg/mL | MIC alone (HA MRSA W239): 8 µg/mL | FIC (HA MRSA W239; ECG with Kur): 0.5 | MIC combine (HA MRSA W239; ECG with Kur): 4 µg/mL | FIC (HA MRSA W239; ECG+Kur+Van): 0.25 | MIC combine (HA MRSA W239; ECG+Kur+Van): 2 µg/mL | MIC alone (HA MRSA W239; Table 5): 8 µg/mL | MIC alone ([4]; 73621 (fusidic acid resistant)): 8 µg/mL | FIC ([4]; ECG+Kur+Fus): 0.5 | MIC combine ([4]; ECG+Kur+Fus): 4 µg/mL | FIC ([4]; ECG+Kur, no Fus): 0.5 | MIC combine ([4]; ECG+Kur, no Fus): 4 µg/mL | MIC alone (HA MRSA W238; W238): 8 µg/mL | MIC alone (HA MRSA W238; W238 (gentamicin resistant)): 8 µg/mL | FIC (HA MRSA W238; W238, ECG with Kur): 0.5 | MIC combine (HA MRSA W238; W238, ECG with Kur): 4 µg/mL | FIC (HA MRSA W238; W238, ECG+Kur+Gen): 0.25 | MIC combine (HA MRSA W238; W238, ECG+Kur+Gen): 2 µg/mL | FIC (HA MRSA W238; W238, ECG+Kur+Van): 0.25 | MIC combine (HA MRSA W238; W238, ECG+Kur+Van): 2 µg/mL | FIC (HA MRSA W238; W238, ECG+Kur, no Gen): 0.5 | MIC combine (HA MRSA W238; W238, ECG+Kur, no Gen): 4 µg/mL | MIC alone (HA MRSA W238; W238, Table 5): 8 µg/mL | MIC alone (CA MRSA W103): 8 µg/mL | FIC (CA MRSA W103; ECG with Kur): 0.5 | MIC combine (CA MRSA W103; ECG with Kur): 4 µg/mL
